Assay results published in PMC3168433, “Drosophila KCNQ Channel Displays Evolutionarily Conserved Electrophysiology and Pharmacology with Mammalian KCNQ Channels” (PLoS ONE, 2011).

How the values were obtained:
Assay type in all cases: cell-based
[1] = molecular target: T1, KCNQ2/3 (Rattus norvegicus, UniProt O88943+O88944); experiment: whole-cell patch clamp, HEK cells, current at +[…] mV; details: HEK293
T1 construct: rat KCNQ2 and KCNQ3 cDNAs in pcDNA3.1 co-transfected 1:1 in HEK cells; heterotetramer

[2] = molecular target: T2, dKCNQ (Drosophila melanogaster, UniProt Q5PXF9); experiment: as above; details: HEK293
T2 construct: gene KCNQ; full-length cDNA RE26469 in pIRES2-EGFP, expressed in HEK cells; homotetramer
T2 sequence (Q5PXF9 1-808): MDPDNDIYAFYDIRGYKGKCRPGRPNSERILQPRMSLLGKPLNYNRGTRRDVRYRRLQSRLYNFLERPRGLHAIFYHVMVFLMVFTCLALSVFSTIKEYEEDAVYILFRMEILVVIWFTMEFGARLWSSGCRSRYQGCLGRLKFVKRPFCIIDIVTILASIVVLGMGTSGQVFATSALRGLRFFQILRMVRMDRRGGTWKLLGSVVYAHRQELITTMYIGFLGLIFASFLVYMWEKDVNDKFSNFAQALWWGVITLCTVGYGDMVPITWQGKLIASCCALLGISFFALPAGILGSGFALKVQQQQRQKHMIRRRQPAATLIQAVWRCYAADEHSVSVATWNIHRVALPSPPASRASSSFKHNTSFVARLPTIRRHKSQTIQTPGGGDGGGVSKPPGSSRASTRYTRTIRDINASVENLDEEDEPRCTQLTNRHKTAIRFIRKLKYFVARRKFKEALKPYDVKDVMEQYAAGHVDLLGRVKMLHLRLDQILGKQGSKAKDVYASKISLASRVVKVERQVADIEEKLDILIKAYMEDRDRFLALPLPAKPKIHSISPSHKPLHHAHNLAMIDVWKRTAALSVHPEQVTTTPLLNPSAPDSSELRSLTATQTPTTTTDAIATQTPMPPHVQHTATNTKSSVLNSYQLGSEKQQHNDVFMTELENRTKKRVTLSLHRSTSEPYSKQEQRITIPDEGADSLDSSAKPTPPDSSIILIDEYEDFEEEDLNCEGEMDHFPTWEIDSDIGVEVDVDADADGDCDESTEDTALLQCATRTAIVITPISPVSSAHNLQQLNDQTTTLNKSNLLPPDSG

[3] = molecular target: T3, KCNQ1/KCNE1 (Homo sapiens, UniProt P51787); experiment: as above; details: HEK293
T3 construct: human KCNQ1 co-expressed with KCNE1 (cDNA 1:2) in HEK cells, pIRES1-CD8; with Potassium voltage-gated channel subfamily E member 1

[4] = molecular target: T2, dKCNQ; experiment: as above
[5] = molecular target: T1, KCNQ2/3; experiment: whole-cell patch clamp, HEK cells, current at −[…] mV; details: opener; at −30 mV; activation V0.5 shifted by −24 mV; pH 7.2; room temperature

T1 sequence (O88943 whole entry): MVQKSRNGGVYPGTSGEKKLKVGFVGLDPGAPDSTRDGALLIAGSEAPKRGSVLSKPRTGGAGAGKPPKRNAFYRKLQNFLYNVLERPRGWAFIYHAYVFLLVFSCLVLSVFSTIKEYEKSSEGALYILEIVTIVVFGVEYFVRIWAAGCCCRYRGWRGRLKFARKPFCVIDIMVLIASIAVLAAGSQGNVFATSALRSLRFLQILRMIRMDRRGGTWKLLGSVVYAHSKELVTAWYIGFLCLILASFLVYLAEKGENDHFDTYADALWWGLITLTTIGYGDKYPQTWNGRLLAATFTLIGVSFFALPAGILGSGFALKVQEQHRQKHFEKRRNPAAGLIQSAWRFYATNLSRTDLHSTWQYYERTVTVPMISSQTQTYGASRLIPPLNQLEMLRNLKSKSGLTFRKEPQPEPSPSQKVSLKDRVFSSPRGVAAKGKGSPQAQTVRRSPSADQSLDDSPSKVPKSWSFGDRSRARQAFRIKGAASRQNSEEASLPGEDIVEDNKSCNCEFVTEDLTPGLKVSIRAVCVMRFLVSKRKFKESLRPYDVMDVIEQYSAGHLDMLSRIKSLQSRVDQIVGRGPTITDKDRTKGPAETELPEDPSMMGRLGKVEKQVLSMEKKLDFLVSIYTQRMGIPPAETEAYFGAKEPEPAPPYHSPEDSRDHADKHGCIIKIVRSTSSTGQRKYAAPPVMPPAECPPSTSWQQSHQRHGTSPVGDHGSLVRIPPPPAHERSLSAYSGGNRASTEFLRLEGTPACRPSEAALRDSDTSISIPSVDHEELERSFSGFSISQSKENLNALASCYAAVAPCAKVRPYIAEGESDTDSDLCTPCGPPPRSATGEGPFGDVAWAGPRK
T1 sequence (O88944 whole entry): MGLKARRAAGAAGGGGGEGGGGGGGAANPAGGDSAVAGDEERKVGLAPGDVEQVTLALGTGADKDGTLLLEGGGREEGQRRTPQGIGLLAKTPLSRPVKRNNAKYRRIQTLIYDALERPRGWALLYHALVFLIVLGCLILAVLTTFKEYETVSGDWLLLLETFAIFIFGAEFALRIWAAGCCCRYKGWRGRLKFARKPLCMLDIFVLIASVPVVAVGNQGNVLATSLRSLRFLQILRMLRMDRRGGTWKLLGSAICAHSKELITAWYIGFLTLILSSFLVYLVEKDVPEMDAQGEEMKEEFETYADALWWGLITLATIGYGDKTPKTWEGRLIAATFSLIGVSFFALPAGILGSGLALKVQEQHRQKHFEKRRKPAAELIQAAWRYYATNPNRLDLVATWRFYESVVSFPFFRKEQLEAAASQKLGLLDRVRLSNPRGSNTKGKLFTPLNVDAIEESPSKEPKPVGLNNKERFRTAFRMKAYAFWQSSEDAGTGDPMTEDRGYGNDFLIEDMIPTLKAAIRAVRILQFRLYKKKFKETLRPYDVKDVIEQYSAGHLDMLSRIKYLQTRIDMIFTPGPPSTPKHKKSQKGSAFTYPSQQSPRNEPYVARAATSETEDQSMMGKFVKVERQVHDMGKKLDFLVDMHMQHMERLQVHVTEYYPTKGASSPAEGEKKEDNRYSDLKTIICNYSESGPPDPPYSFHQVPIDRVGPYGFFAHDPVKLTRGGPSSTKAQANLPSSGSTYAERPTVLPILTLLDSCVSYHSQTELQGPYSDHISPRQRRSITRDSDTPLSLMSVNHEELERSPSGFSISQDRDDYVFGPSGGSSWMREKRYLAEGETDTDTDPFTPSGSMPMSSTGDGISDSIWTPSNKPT
T3 sequence (P51787 whole entry): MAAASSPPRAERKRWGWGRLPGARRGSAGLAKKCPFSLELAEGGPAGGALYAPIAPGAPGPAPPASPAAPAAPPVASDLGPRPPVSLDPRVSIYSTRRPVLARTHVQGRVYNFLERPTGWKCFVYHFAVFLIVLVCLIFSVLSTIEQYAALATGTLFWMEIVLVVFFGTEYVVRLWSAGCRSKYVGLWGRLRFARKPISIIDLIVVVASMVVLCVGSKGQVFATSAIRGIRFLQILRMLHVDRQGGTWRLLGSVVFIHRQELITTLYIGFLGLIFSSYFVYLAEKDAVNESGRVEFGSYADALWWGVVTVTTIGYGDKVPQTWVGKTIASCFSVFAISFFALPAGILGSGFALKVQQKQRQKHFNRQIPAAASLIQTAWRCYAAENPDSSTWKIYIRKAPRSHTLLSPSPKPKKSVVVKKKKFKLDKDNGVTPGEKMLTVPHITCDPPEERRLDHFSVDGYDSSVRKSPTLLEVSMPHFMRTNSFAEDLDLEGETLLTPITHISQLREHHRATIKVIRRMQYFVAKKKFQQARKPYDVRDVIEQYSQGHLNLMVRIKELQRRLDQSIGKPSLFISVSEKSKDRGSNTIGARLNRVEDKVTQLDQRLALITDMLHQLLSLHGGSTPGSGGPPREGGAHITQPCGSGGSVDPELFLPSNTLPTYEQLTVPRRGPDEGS

Row | SMILES | inhibition at 10 µM [1] [%] | inhibition at 10 µM [2] [%] | inhibition at 10 µM [3] [%] | IC50 [4] [µM] | % current enhancement at 10 μM [5]
1 | O=C1N(c2ccccc2)c2ccccc2C1(Cc1ccncc1)Cc1ccncc1 [linopirdine] | ~40 | ~30 | – | – | –
2 | CCS(=O)(=O)N(C)C1c2cc(C#N)ccc2OC(C)(C)C1O (stereo not shown) [chromanol 293B] | – | – | ~56 | 13 ± 3.6 | –
3 | CCOC(=O)Nc1ccc(NCc2ccc(F)cc2)cc1N [retigabine] | – | – | – | – | ~ 35%
4 | O=C1c2ccccc2C(Cc2ccncc2)(Cc2ccncc2)c2ccccc21 [XE991, 10,10-bis(4-Pyridinylmethyl)-9(10H)-anthracenone] | ~50 | – | – | 5.5 ± 1.1 | –
